Data from the OPERA property sets (Mansouri et al. 2018).

Conditions: for log10 BCF / log10 biotransformation half-life (days): fish

Row | SMILES | boiling point [°C] | melting point [°C] | other results
1 | CC1=CCCC1=O | 157 | – | –
2 | CCCCCCCOCCCCCCC | 258 | – | –
3 | Cc1cccc(CCl)c1 | 196 | – | –
4 | CCC(CC)CCl | 126 | – | –
5 | Cc1c(Cl)c(C)c(Cl)c(Cl)c1Cl | – | 223 | –
6 | O=C1c2ccccc2C(=O)c2cc(Cl)ccc21 | – | 211 | ready biodegradability: not readily biodegradable; log10 BCF: 2.28; log10 biotransformation half-life (days): -0.36
7 | CC(=O)OC(C)OC(C)=O | 169 | 18.9 | –
8 | Ic1ccc2c(c1)Oc1ccccc1O2 | – | 95 | log10 vapour pressure (mmHg): -4.5
9 | FC(F)(Cl)C(F)(Cl)C(F)(F)Cl | 73.7 | -72 | –
10 | CCC(N)C(O)c1ccccc1 (stereo not drawn) | – | 79.5 | –
11 | CCOC(=O)c1cccnc1 | 224 | 8.5 | –
12 | O=C1CCC(=O)N1Cl | 216 | 150 | –
13 | CCCCc1nc(Cl)c(CO)n1Cc1ccc(-c2ccccc2-c2nnn[nH]2)cc1 | – | 184 | –
14 | CCc1ccc2cc(O)c(O)cc2c1 | – | 149 | –
15 | CC(C)CCC[C@@H](C)[C@H]1CC[C@@H]2[C@@H]3CC[C@H]4CCCC[C@]4(C)[C@H]3CC[C@@]21C | – | 76 | –
16 | O=C(Cn1c(=O)sc2ccc(Cl)cc21)N1CCN(CCO)CC1 | – | 160 | –
17 | C=CC(C)CCCC (stereo not drawn) | 111 | – | –
18 | C[N+](C)(C)CCCl.[Cl-] | – | – | log10 vapour pressure (mmHg): -7.12
19 | N#CCN | – | 101 | –
20 | Clc1cc(Cl)c(Oc2cc(Cl)c(Cl)cc2Cl)cc1Cl | – | – | log10 biotransformation half-life (days): 1.98
21 | CCSCCSCC | 217 | 180 | –
22 | COc1ccc(C(N)=O)cc1OC | – | 164 | –
23 | CB(C)Cl | 4.9 | – | –
24 | C1=COCC1 | 54.5 | – | log10 vapour pressure (mmHg): 2.4
25 | Nc1ccc(N=Nc2ccccc2)c(N)n1 | – | 139 | log10 Koc (L/kg): 2.32

Row | SMILES | boiling point [°C] | melting point [°C] | other results
26 | CCCCC(CC)COC(=O)C=CC(=O)OCC(CC)CCCC (stereo not drawn) | – | – | ready biodegradability: readily biodegradable
27 | CNS(=O)(=O)c1ccc(C)cc1 | – | 78.5 | –
28 | CCCCNC(=O)c1ccc2cc(O)c(O)cc2c1 | – | 194 | –
29 | Oc1ccc(O)c(Cc2ccccc2)c1 | – | 106 | –
30 | COc1cc2c(cc1O)CCN[C@@H]2C | – | 222 | –
31 | CC(C)C1NC(=O)NC1=O (stereo not drawn) | – | – | ready biodegradability: not readily biodegradable
32 | CC1(C)[C@H](C(=O)O[C@H](C#N)c2cccc(Oc3ccccc3)c2)[C@@H]1C(Br)C(Br)(Br)Br (stereo partly drawn) | – | 143 | log10 Koc (L/kg): 5; log10 vapour pressure (mmHg): -10.4
33 | CCCCOCCOCCOCCO | 278 | -30 | log10 vapour pressure (mmHg): -2.6
34 | O=C(O)C(c1ccccc1)c1ccccc1 | – | 147 | –
35 | C[C@]12CC[C@H](O)CC1=CC[C@@H]1[C@@H]2CC[C@]2(C)C(=O)CC[C@@H]12 | – | 140 | –
36 | COc1ccc2c3c1O[C@H]1C(=O)CC[C@@]4(O)[C@@H](C2)N(C)CC[C@]314 | – | 219 | –
37 | O=C(O)c1cnccn1 | – | – | ready biodegradability: readily biodegradable
38 | CCCCCCCCCCCCCCCC(OC)OC | – | 10 | –
39 | CC1=C(/C=C/C(C)=C/C=C/C(C)=C/C=C/C=C(C)/C=C/C=C(C)/C=C/C2=C(C)C[C@@H](O)CC2(C)C)C(C)(C)C[C@H](O)C1 | – | 216 | –
40 | CCCC(=O)[O-].[Na+] | – | 251 | –
41 | C[C@]12CC[C@H](O)C[C@H]1CC[C@@H]1[C@@H]2C[C@@H](O)[C@]2(C)[C@@H](C3=CC(=O)OC3)CC[C@]12O | – | 222 | –
42 | FC(F)(F)C(F)(F)I | 13 | – | –
43 | CC(N)=O | 222 | 81 | log10 Koc (L/kg): 0.7; log10 vapour pressure (mmHg): -1.4; ready biodegradability: readily biodegradable
44 | CCC1(C2=C[C@H]3CC[C@@H](C2)C3)C(=O)NC(=O)NC1=O | – | 213 | –
45 | O=C(O)c1cc(O)c2ccccc2n1 | – | 282 | –
46 | CCCCCOC(=O)CCC | 186 | -73.2 | –
47 | Cc1cnc(C)c(C)n1 | 172 | – | –
48 | CN1C(=O)CCS(=O)(=O)C1c1ccc(Cl)cc1 (stereo not drawn) | – | 116 | –
49 | CS(C)(=O)=O | 238 | 109 | –
50 | COc1ccc(/C=N/NC(=O)c2ccncc2)cc1OC | – | 189 | –

Row | SMILES | boiling point [°C] | melting point [°C] | other results
51 | CCC(C)=C(C)C(C)=O | 158 | – | –
52 | CCC(C)=NNc1ccc([N+](=O)[O-])cc1[N+](=O)[O-] | – | 117 | –
53 | CCCCI | 131 | -103 | log10 vapour pressure (mmHg): 1.14
54 | O=S(=O)(F)Cc1ccccc1 | – | 93 | –
55 | OCc1cccs1 | 207 | – | –
56 | Nc1ccc(S(=O)(=O)c2ccc([N+](=O)[O-])cc2)cc1 | – | 170 | –
57 | CCCCCCCSCCCCCCC | 298 | – | –
58 | O=[N+]([O-])c1cccc(F)c1 | 199 | 41 | –
59 | Sc1ccc(Cl)cc1 | 206 | 61 | –
60 | CC1=C(/C=C/C(C)=C/C=C/C(C)=C/C(=O)O)C(C)(C)CCC1 | – | 181 | –
61 | FC(F)(F)F | -128 | -184 | log10 Henry constant (atm·m³/mol): 0.712; log10 Koa: -0.95; log10 vapour pressure (mmHg): 5.24
62 | Cc1cccc(O)c1C | 217 | 72.8 | log10 Henry constant (atm·m³/mol): -6.13; log10 vapour pressure (mmHg): -1.05
63 | Nc1c(Br)cc(Br)cc1Br | 300 | 122 | –
64 | Cc1ccc(C)[nH]1 | 171 | 7.7 | log10 vapour pressure (mmHg): -0.0942
65 | Brc1ccc(Oc2cc(Br)c(Br)cc2Br)c(Br)c1 | – | – | log10 Koa: 11.3; log10 vapour pressure (mmHg): -7.51; logP: 7.32; log10 BCF: 6.01; log10 biotransformation half-life (days): 1.95
66 | Nc1ccccn1 | 211 | 57.5 | ready biodegradability: not readily biodegradable; log10 BCF: 1.06
67 | CCCOCCC | 90 | -122 | log10 Henry constant (atm·m³/mol): -2.66; log10 Koa: 2.97; log10 vapour pressure (mmHg): 1.8
68 | ClC1=C(Cl)C2(Cl)C(CBr)CC1(Cl)C2(Cl)Cl (stereo not drawn) | – | 77 | –
69 | CCCN(CCC)C(=O)COC(=O)c1ccccc1 | – | 20 | –
70 | C[C@H](CCC(=O)O)[C@H]1CC[C@H]2[C@@H]3CC[C@@H]4C[C@H](O)CC[C@]4(C)[C@H]3C[C@H](O)[C@]12C | – | 177 | –
71 | C[C@@H](CO)NC(=O)[C@@H]1C=C2c3cccc4[nH]cc(c34)C[C@H]2N(C)C1 | – | 162 | –
72 | C=C(CC)CC | 64.7 | -132 | log10 vapour pressure (mmHg): 2.24
73 | O=C(O)c1cc(=O)cc(C(=O)O)o1 | – | 262 | –
74 | C1CCCNCC1 | 138 | – | log10 Henry constant (atm·m³/mol): -5.21; log10 vapour pressure (mmHg): 0.908
75 | S=C1NC(=S)C(c2ccccc2)(c2ccccc2)N1 | – | 263 | –

Row | SMILES | boiling point [°C] | melting point [°C] | other results
76 | O=[N+]([O-])c1ccc(C=NO)o1 | – | 163 | –
77 | Clc1cc(Cl)c2c(c1)oc1c(Cl)cc(Cl)cc12 | – | 177 | log10 vapour pressure (mmHg): -7.57
78 | C=Cc1cccc(C=C)c1 | – | -52.3 | log10 vapour pressure (mmHg): -0.237; ready biodegradability: not readily biodegradable; log10 BCF: 2.54; log10 biotransformation half-life (days): 0.59
79 | NS(=O)(=O)c1ccc(N2CCCCS2(=O)=O)cc1 | – | 181 | –
80 | CC(C)Oc1ccccc1 | 177 | -33 | –
81 | CCCCCC(C)CC (stereo not drawn) | 144 | -108 | log10 biodegradation half-life (days): 0.699; log10 vapour pressure (mmHg): 0.796
82 | Nc1ncnc2c1ncn2[C@@H]1O[C@H](CO)[C@@H](O)[C@H]1O | – | 246 | –
83 | CCC(C)Nc1c([N+](=O)[O-])cc(C(C)(C)C)cc1[N+](=O)[O-] (stereo not drawn) | – | 60 | log10 Koc (L/kg): 3.98; log10 vapour pressure (mmHg): -4.9
84 | CC(CC(=O)O)C(=O)O (stereo not drawn) | – | 118 | –
85 | CCCCc1ccccn1 | 192 | 97 | –
86 | CCCC(C)C(C)CCC (stereo not drawn) | 162 | – | –
87 | Cc1c(C)c(O)c(C)c(C)c1O | – | 233 | –
88 | NCCN1CCOCC1 | 205 | 25.6 | –
89 | c1ccc(CNc2[nH]cnc3ncnc2-3)cc1 | – | 233 | log10 vapour pressure (mmHg): -10.7
90 | CC(C)COC(=O)C(=O)OCC(C)C | 229 | – | –
91 | CC(C)(C)OOC(C)(C)CCC(C)(C)OOC(C)(C)C | – | 8 | ready biodegradability: not readily biodegradable; log10 BCF: 3.48; log10 biotransformation half-life (days): 0.77
92 | CCCNC(C)C(=O)Nc1ccccc1C (stereo not drawn) | – | 37.5 | –
93 | COC(=O)C1CCCCC1 | 183 | – | –
94 | CCOC(=O)NCCOc1ccc(Oc2ccccc2)cc1 | – | 53.2 | log10 Koc (L/kg): 3; log10 vapour pressure (mmHg): -8.2
95 | N#Cc1c(F)c(F)c(F)c(F)c1C#N | – | 83 | –
96 | CC(/C=C/C=C(\C)C(=O)O[C@@H]1O[C@H](CO[C@@H]2O[C@H](CO)[C@@H](O)[C@H](O)[C@H]2O)[C@@H](O)[C@H](O)[C@H]1O)=C\C=C\C=C(C)\C=C\C=C(/C)C(=O)O[C@@H]1O[C@H](CO[C@@H]2O[C@H](CO)[C@@H](O)[C@H](O)[C@H]2O)[C@@H](O)[C@H](O)[C@H]1O | – | 186 | –
97 | O=C1c2ccccc2C(=O)c2c(NCCO)ccc(NCCO)c21 | – | 248 | –
98 | CCOC(=O)c1ccc([N+](=O)[O-])cc1 | 186 | 57 | log10 Koc (L/kg): 2.48
99 | FC(F)(F)c1ccccc1Br | 168 | – | –
100 | CCCCCCCCCCCCCCCCCCCCc1ccccc1 | 429 | 44 | –

Row | SMILES | boiling point [°C] | melting point [°C] | other results
101 | CCOC(=O)C(Br)Br | 194 | – | –
102 | CCCCCSSCCCCC | – | – | log10 vapour pressure (mmHg): -2.2
103 | CC(C)(C)CC(=O)Cl | 130 | – | –
104 | CCCC(CCC)C(=O)O | 222 | – | ready biodegradability: readily biodegradable
105 | N=CNO | – | 114 | –
106 | CCCCCCCCCC(N)=O | – | 108 | –
107 | CCC(Br)(CC)C(=O)NC(=O)NC(C)=O | – | 109 | –
108 | C[Si](C)(Cl)CBr | 131 | – | –
109 | Cc1cc(Cl)ccc1O[C@H](C)C(=O)O | – | – | log10 vapour pressure (mmHg): -5.58
110 | Cc1ccsc1/C=C/C1=NCCCN1C | – | 240 | –
111 | CCCCN(CCCC)CCCC | 216 | -70 | log10 vapour pressure (mmHg): -1.03; ready biodegradability: not readily biodegradable; log10 BCF: 1.4
112 | Oc1ccccc1C1CCCC1 | – | 34.5 | –
113 | CCCCCCCCCCCC1CCCC1 | 296 | -10 | –
114 | O=C(O)c1ccccc1C(=O)O | – | – | log10 Koc (L/kg): 1.07; log10 vapour pressure (mmHg): -6.2; ready biodegradability: readily biodegradable
115 | NNc1nncc2ccccc12 | – | 172 | –
116 | CC(=O)c1cccc(Cl)c1 | 244 | – | –
117 | O=C1CN(N=Cc2ccc(-c3ccc([N+](=O)[O-])cc3)o2)C(=O)N1 | – | 280 | –
118 | O=C(O)c1cccc(Br)c1 | – | 155 | log10 vapour pressure (mmHg): -4.04
119 | CN(C)CC/C=C1\c2ccccc2Sc2ccc(Cl)cc21 | – | 97.5 | –
120 | C=CCc1ccc2c(c1)OCO2 | 234 | 11.2 | log10 Koc (L/kg): 2.83
121 | CC(C)S | 52.5 | -130 | log10 vapour pressure (mmHg): 2.44
122 | N#CC(F)(F)F | -68.8 | – | –
123 | CC(CCO)CCO | – | – | ready biodegradability: readily biodegradable
